Results: patent US11000033B2, “Ketone or oxime compound, and herbicide” (NISSAN CHEMICAL CORPORATION, priority 2014, dated 2021)

Key:
[1] = tested on: Echinochloa oryzacola Vasing.; assay: Test Example 2: herbicidal activity, application during weed generation in submerged conditions (symbol A); type: in vivo; conditions: Table 23, grade 0-5 by criteria of Test Example 1
Method in brief: (§1)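 Each pot contained alluvial soil under 4 cm of water with seeds of all three weeds sown together. Following growth at 25° C. to 30° C. to the one- to two-leaf stage, the floodwater received diluted emulsion at a predetermined amount; visual assessment followed at 3 weeks.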

Monochoria vaginalis = assay: Test Example 2: herbicidal activity, application during weed generation in submerged conditions (symbol C); type: in vivo; conditions: Table 23, grade 0-5 by criteria of Test Example 1
Method in brief: as §1

Digitaria ciliaris = assay: Test Example 4: herbicidal effect by soil treatment (symbol F); type: in vivo
Method in brief: (§2)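 Seeds were sown in sterilized diluvial soil, covered with about 1.5 cm of soil, and the soil surface was sprayed with a water-diluted emulsion of the compound at a predetermined rate. Plants grew in a greenhouse at 25° C. to 30° C.; effects were scored visually 3 weeks after application.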

Setaria viridis = assay: Test Example 4: herbicidal effect by soil treatment (symbol G); type: in vivo
Method in brief: as §2

Lolium multiflorum Lam. = assay: Test Example 4: herbicidal effect by soil treatment (symbol K); type: in vivo
Method in brief: as §2

Apera spica-venti [2] = assay: Test Example 4: herbicidal effect by soil treatment (symbol L); type: in vivo
Method in brief: as §2

Abutilon theophrasti [3] = assay: Test Example 4: herbicidal effect by soil treatment (symbol M); type: in vivo
Method in brief: as §2

Chenopodium album [4] = assay: Test Example 4: herbicidal effect by soil treatment (symbol O); type: in vivo; conditions: 320 g/ha
Method in brief: as §2

Galium spurium = assay: Test Example 4: herbicidal effect by soil treatment (symbol Q); type: in vivo
Method in brief: as §2

soybean = assay: Test Example 4: effect on crop by soil treatment (symbol d); type: in vivo
Method in brief: (§3)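 Steps: fill box with sterilized diluvial soil; sow seed spot-like; cover with ~1.5 cm soil; grow in greenhouse (25° C. to 30° C.).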

beet = assay: Test Example 4: effect on crop by soil treatment (symbol f); type: in vivo
Method in brief: as §3

Avena fatua = assay: Test Example 5: herbicidal effect by foliage application, plastic box (symbol I); type: in vivo; conditions: 3 weeks after application; for I: Avena fatua, herbicidal effect (criteria 0-5): 320 g/ha
Method in brief: (§4)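 After sowing into sterilized diluvial soil and growing two weeks under glass at 25° C. to 30° C., seedlings receive a uniform foliar spray of diluted emulsion. Damage is judged visually three weeks on.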

Apera spica-venti [5] = assay: Test Example 5: herbicidal effect by foliage application, plastic box (symbol L); type: in vivo; conditions: 3 weeks after application; for L: Apera spica-venti, herbicidal effect (criteria 0-5): 320 g/ha
Method in brief: as §4

Abutilon theophrasti [6] = assay: Test Example 5: herbicidal effect by foliage application, plastic box (symbol M); type: in vivo; conditions: 3 weeks after application; for M: Abutilon theophrasti, herbicidal effect (criteria 0-5): 320 g/ha
Method in brief: as §4

Chenopodium album [7] = assay: Test Example 5: herbicidal effect by foliage application, plastic box (symbol O); type: in vivo; conditions: 3 weeks after application; for O: Chenopodium album, herbicidal effect (criteria 0-5): 320 g/ha
Method in brief: as §4

Stellaria media = assay: Test Example 5: herbicidal effect by foliage application, plastic box (symbol P); type: in vivo; conditions: 3 weeks after application; for P: Stellaria media, herbicidal effect (criteria 0-5): 320 g/ha
Method in brief: as §4

Veronica persica = assay: Test Example 5: herbicidal effect by foliage application, plastic box (symbol R); type: in vivo; conditions: 3 weeks after application; for R: Veronica persica, herbicidal effect (criteria 0-5): 320 g/ha
Method in brief: as §4

rice plant = assay: Test Example 5: effect on crop by foliage application, plastic box (symbol b); type: in vivo; conditions: 3 weeks after application; for b: directly sowed rice plant, effect on crop (criteria 0-5): 320 g/ha
Method in brief: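 A greenhouse held between 25° C. and 30° C. was used to grow plants sown spot-wise, beneath ~1.5 cm of soil, in boxes of sterilized diluvial soil.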

[8] = tested on: Echinochloa crus-galli var. crus-galli; assay: Test Example 3: herbicidal effect by foliage application, Wagner pot (symbol H); type: in vivo
Method in brief: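 Seeds sown in alluvial soil kept under 0.1–0.5 cm water, greenhouse 25–30 °C; 14 d growth. Leaves treated by small sprayer with water-diluted emulsion at a predetermined rate. Effect graded by set scale, 3 weeks.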

[9] = application herbicide amount 320 g/ha
[10] = application herbicide amount 102 g/ha

Row | melting point [°C] | Compound | Herbicidal effect grade, A: Echinochloa oryzacola Vasing. [1, 9] | Herbicidal effect grade, C: Monochoria vaginalis (Monochoria vaginalis; [9]) | F: Digitaria ciliaris, herbicidal effect grade (Digitaria ciliaris; 320 g/ha) | G: Setaria viridis, herbicidal effect grade (Setaria viridis; 320 g/ha) | K: Lolium multiflorum Lam., herbicidal effect grade (Lolium multiflorum Lam.; 320 g/ha) | L: Apera spica-venti, herbicidal effect grade (Apera spica-venti [2]; 320 g/ha) | M: Abutilon theophrasti, herbicidal effect grade (Abutilon theophrasti [3]; 320 g/ha) | O: Chenopodium album, herbicidal effect grade (Chenopodium album [4]) | Q: Galium spurium, herbicidal effect grade (Galium spurium; 320 g/ha) | d: soybean, effect grade on crop (soybean; 320 g/ha) | f: beet, effect grade on crop (beet; 320 g/ha) | I: Avena fatua, herbicidal effect (criteria 0-5) (Avena fatua) | L: Apera spica-venti, herbicidal effect (criteria 0-5) (Apera spica-venti [5]) | M: Abutilon theophrasti, herbicidal effect (criteria 0-5) (Abutilon theophrasti [6]) | O: Chenopodium album, herbicidal effect (criteria 0-5) (Chenopodium album [7]) | P: Stellaria media, herbicidal effect (criteria 0-5) (Stellaria media) | R: Veronica persica, herbicidal effect (criteria 0-5) (Veronica persica) | b: directly sowed rice plant, effect on crop (criteria 0-5) (rice plant) | herbicidal effect on H (Echinochloa crus-galli var. crus-galli), grade 0-5 [8, 9] | also measured
1 | 115 to 118 | CON=C(CC1CC(O)=C(c2c(C)cc(C)cc2C)C1=O)C(F)(F)F (centres unmarked) [1-097] | 1 (Herbicidal ratio of 5% or higher and lower than 20%) | 0 (Herbicidal ratio of 5% or lower (almost no effect)) | 0 (Herbicidal ratio of 5% or lower (almost no effect)) | 2 (Herbicidal ratio of 20% or higher and lower than 40%) | 2 (Herbicidal ratio of 20% or higher and lower than 40%) | 0 (Herbicidal ratio of 5% or lower (almost no effect)) | 0 (Herbicidal ratio of 5% or lower (almost no effect)) | 3 (Herbicidal ratio of 40% or higher and lower than 70%) | 0 (Herbicidal ratio of 5% or lower (almost no effect)) | 0 (Herbicidal ratio of 5% or lower (almost no effect)) | 0 (Herbicidal ratio of 5% or lower (almost no effect)) | 3 (Herbicidal ratio of 40% or higher and lower than 70%) | 4 (Herbicidal ratio of 70% or higher and lower than 90%) | 3 (Herbicidal ratio of 40% or higher and lower than 70%) | 1 (Herbicidal ratio of 5% or higher and lower than 20%) | 0 (Herbicidal ratio of 5% or lower (almost no effect)) | 3 (Herbicidal ratio of 40% or higher and lower than 70%) | 5 (Herbicidal ratio of 90% or more (almost completely withered)) | – | –
2 | 123 to 126 | CCCON=C(C)CC1CC(O)=C(c2c(C)cc(C)cc2C)C1=O (centres unmarked) [1-123] | 5 (Herbicidal ratio of 90% or more (almost completely withered)) | 2 (Herbicidal ratio of 20% or higher and lower than 40%) | 5 (Herbicidal ratio of 90% or more (almost completely withered)) | 5 (Herbicidal ratio of 90% or more (almost completely withered)) | 5 (Herbicidal ratio of 90% or more (almost completely withered)) | 5 (Herbicidal ratio of 90% or more (almost completely withered)) | 3 (Herbicidal ratio of 40% or higher and lower than 70%) | 0 (Herbicidal ratio of 5% or lower (almost no effect)) | 0 (Herbicidal ratio of 5% or lower (almost no effect)) | 0 (Herbicidal ratio of 5% or lower (almost no effect)) | 0 (Herbicidal ratio of 5% or lower (almost no effect)) | 5 (Herbicidal ratio of 90% or more (almost completely withered)) | 5 (Herbicidal ratio of 90% or more (almost completely withered)) | 4 (Herbicidal ratio of 70% or higher and lower than 90%) | 0 (Herbicidal ratio of 5% or lower (almost no effect)) | 3 (Herbicidal ratio of 40% or higher and lower than 70%) | 4 (Herbicidal ratio of 70% or higher and lower than 90%) | 5 (Herbicidal ratio of 90% or more (almost completely withered)) | 5 (Herbicidal ratio of 90% or more (almost completely withered)) | –
3 | 137 to 138 | Cc1cc(C)c(C2=C(O)CC(CC(=NOCC(F)(F)F)C3CC3)C2=O)c(C)c1 (centres unmarked) [1-131] | 4 (Herbicidal ratio of 70% or higher and lower than 90%) | 0 (Herbicidal ratio of 5% or lower (almost no effect)) | 4 (Herbicidal ratio of 70% or higher and lower than 90%) | 5 (Herbicidal ratio of 90% or more (almost completely withered)) | 5 (Herbicidal ratio of 90% or more (almost completely withered)) | 5 (Herbicidal ratio of 90% or more (almost completely withered)) | 0 (Herbicidal ratio of 5% or lower (almost no effect)) | 0 (Herbicidal ratio of 5% or lower (almost no effect)) | – | 0 (Herbicidal ratio of 5% or lower (almost no effect)) | 0 (Herbicidal ratio of 5% or lower (almost no effect)) | 4 (Herbicidal ratio of 70% or higher and lower than 90%) | 5 (Herbicidal ratio of 90% or more (almost completely withered)) | 0 (Herbicidal ratio of 5% or lower (almost no effect)) | 0 (Herbicidal ratio of 5% or lower (almost no effect)) | 0 (Herbicidal ratio of 5% or lower (almost no effect)) | 4 (Herbicidal ratio of 70% or higher and lower than 90%) | 4 (Herbicidal ratio of 70% or higher and lower than 90%) | 5 (Herbicidal ratio of 90% or more (almost completely withered)) | –
4 | 183 to 185 | CC(=O)CC1CC(O)=C(c2c(C)cc(C)cc2C)C1=O (centres unmarked) [2-001, 3-hydroxy-2-mesityl-5-(2-oxopropyl)cyclopent-2-enone] | – | – | – | – | – | – | – | – | – | – | – | – | – | – | – | – | – | – | – | Herbicidal effect grade, A: Echinochloa oryzacola Vasing. [1, 10]: 0 (Herbicidal ratio of 5% or lower (almost no effect)); Herbicidal effect grade, C: Monochoria vaginalis (Monochoria vaginalis; [10]): 0 (Herbicidal ratio of 5% or lower (almost no effect)); herbicidal effect on H (Echinochloa crus-galli var. crus-galli), grade 0-5 [8, 10]: 5 (Herbicidal ratio of 90% or more (almost completely withered)); F: Digitaria ciliaris, herbicidal effect grade (Digitaria ciliaris; 102 g/ha): 5 (Herbicidal ratio of 90% or more (almost completely withered)); G: Setaria viridis, herbicidal effect grade (Setaria viridis; 102 g/ha): 4 (Herbicidal ratio of 70% or higher and lower than 90%); K: Lolium multiflorum Lam., herbicidal effect grade (Lolium multiflorum Lam.; 102 g/ha): 5 (Herbicidal ratio of 90% or more (almost completely withered)); L: Apera spica-venti, herbicidal effect grade (Apera spica-venti [2]; 102 g/ha): 2 (Herbicidal ratio of 20% or higher and lower than 40%); M: Abutilon theophrasti, herbicidal effect grade (Abutilon theophrasti [3]; 102 g/ha): 3 (Herbicidal ratio of 40% or higher and lower than 70%); Q: Galium spurium, herbicidal effect grade (Galium spurium; 102 g/ha): 0 (Herbicidal ratio of 5% or lower (almost no effect)); d: soybean, effect grade on crop (soybean; 102 g/ha): 0 (Herbicidal ratio of 5% or lower (almost no effect)); f: beet, effect grade on crop (beet; 102 g/ha): 0 (Herbicidal ratio of 5% or lower (almost no effect)); I: Avena fatua, herbicidal effect grade (Avena fatua; 102 g/ha): 4 (Herbicidal ratio of 70% or higher and lower than 90%); L: Apera spica-venti, herbicidal effect grade (Apera spica-venti [5]; 102 g/ha): 4 (Herbicidal ratio of 70% or higher and lower than 90%); M: Abutilon theophrasti, herbicidal effect grade (Abutilon theophrasti [6]; 102 g/ha): 1 (Herbicidal ratio of 5% or higher and lower than 20%); O: Chenopodium album, herbicidal effect grade (Chenopodium album [7]; 102 g/ha): 3 (Herbicidal ratio of 40% or higher and lower than 70%); P: Stellaria media, herbicidal effect grade (Stellaria media; 102 g/ha): 3 (Herbicidal ratio of 40% or higher and lower than 70%); R: Veronica persica, herbicidal effect grade (Veronica persica; 102 g/ha): 2 (Herbicidal ratio of 20% or higher and lower than 40%); b: directly sowed rice plant, effect on crop grade (rice plant; 102 g/ha): 4 (Herbicidal ratio of 70% or higher and lower than 90%)
